Test results as given in paper PMC3700763, “First human dose-escalation study with remogliflozin etabonate, a selective inhibitor of the sodium-glucose transporter 2 (SGLT2), in healthy subjects and in subjects with type 2 diabetes mellitus” (BMC Pharmacology & Toxicology, 2013).
Marks after values point to notes of the source that are not given here.

How the values were obtained:
SGLT-2 = system: SGLT-2; design: method as in PMID 22851617; conditions: relative to remogliflozin; cited from earlier work
[1] = Plasma pharmacokinetics, healthy subjects; assay type: in vivo, human; conditions: for Tmax / half-life / AUC(0-inf) / Cmax: human; for AUC(0-inf): read-out: AUC(0-∞) Geometric mean (CV%); for Cmax: read-out: Cmax Geometric mean (CV%); for AUC ratio (remogliflozin/remogliflozin etabonate) Geometric mean: molecular weight corrected
Description: Ten healthy subjects were evaluated in 5 study sessions, each separated by approximately 2 weeks. At each study session, subjects received either an oral dose of remogliflozin etabonate or placebo after an overnight fast. Remogliflozin etabonate doses were 20 mg, 50 mg, 150 mg, 500 mg and 1000 mg. Over the course of participation in the study, each subject received 4 of the 5 active remogliflozin etabonate doses and 1 dose of placebo (4:1 active to placebo ratio per treatment period). The available safety and PK results from each dosing period were evaluated before proceeding to the next dose level. On each dosing day, a series of 2.0 mL blood samples were collected at pre-dose and 10, 20, 30 and 45 min, and 1, 1.25, 1.5, 2, 2.5, 3, 4, 6, 8, 12, 16, and 24 h post-dose for the determination of remogliflozin etabonate, remogliflozin and GSK279782 in plasma by using high-performance liquid chromatography with tandem mass spectrometry (MS/MS) as described. Non-compartmental PK analysis of plasma concentration–time data was performed using WinNonlin Version 4.1 (Pharsight Corporation, Mountainview, CA, USA). The Cmax and Tmax were obtained directly from the data. Areas under the plasma concentration–time curves from time zero to the last quantifiable time point (AUC[0–last]) and extrapolated to infinity (AUC[0–∞]) were calculated using the log-linear trapezoidal method. The terminal plasma elimination rate-constant (λz) was estimated from log-linear regression analysis of the terminal phase of the plasma concentration–time curve, and the T½ was calculated as T½ = ln2/λz. Ratios of AUC(0–∞) remogliflozin to AUC(0–last) remogliflozin etabonate were calculated including molecular weight corrections. Safety and pharmacodynamic data were summarized using descriptive statistics. This was a small exploratory study and no formal hypothesis-testing was conducted. Dose proportionality with respect to Cmax, and AUC was assessed using the power model y = α dose^β, where y = Cmax or AUC, and α denotes a random subject effect. The exponent β in the power model will be estimated by regressing the loge-transformed PK parameters on loge dose, i.e. ln(PK parameter) = ln(α) + β * ln(dose). Dose proportionality implied that β = 1 and was assessed by estimating β and its corresponding 90% confidence interval. The power model was fitted by restricted maximum likelihood using SAS Proc Mixed.

[2] = Plasma pharmacokinetics, T2DM subjects; assay type: in vivo, human; conditions: for AUC(0-inf) / Cmax / Tmax / half-life: human, plasma analyte; for AUC(0-inf): read-out: AUC(0–∞) Geometric mean (CV%); for Cmax: read-out: Cmax Geometric mean (CV%); for Tmax: read-out: Tmax Median; for half-life: read-out: T½ Geometric mean (CV%) (converted)
Description: Six subjects with T2DM received two doses of remogliflozin etabonate and a placebo dose, in a randomized, dose escalating, crossover design, along with an oral glucose load on three study sessions separated by 7–14 days. Full PK and safety profiles were measured on Day 1 of each dosing period. The doses selected for this portion of the study, 50 mg and 500 mg, were based on data obtained in Part A. In each dosing period, subjects were assigned to active vs placebo in a 2:1 ratio. On each dosing day, a series of 2.0 mL blood samples were collected at pre-dose and 10, 20, 30 and 45 min, and 1, 1.25, 1.5, 2, 2.5, 3, 4, 6, 8, 12, 16, and 24 h post-dose for the determination of remogliflozin etabonate, remogliflozin and GSK279782 in plasma by using high-performance liquid chromatography with tandem mass spectrometry (MS/MS) as described. Non-compartmental PK analysis of plasma concentration–time data was performed using WinNonlin Version 4.1 (Pharsight Corporation, Mountainview, CA, USA). The Cmax and Tmax were obtained directly from the data. Areas under the plasma concentration–time curves from time zero to the last quantifiable time point (AUC[0–last]) and extrapolated to infinity (AUC[0–∞]) were calculated using the log-linear trapezoidal method. The terminal plasma elimination rate-constant (λz) was estimated from log-linear regression analysis of the terminal phase of the plasma concentration–time curve, and the T½ was calculated as T½ = ln2/λz. Ratios of AUC(0–∞) remogliflozin to AUC(0–last) remogliflozin etabonate were calculated including molecular weight corrections.

SGLT2 over SGLT1 = system: SGLT2 over SGLT1; design: method as in PMID 12139397; conditions: cited from earlier work
[3] = plasma, po, 20 mg, plasma analyte, healthy subjects, remogliflozin etabonate 20 mg oral dose, read-out: T½ Geometric mean (CV%) (converted)
[4] = plasma, po, 50 mg, plasma analyte, healthy subjects, remogliflozin etabonate 50 mg oral dose, read-out: T½ Geometric mean (CV%) (converted)
[5] = plasma, po, 150 mg, plasma analyte, healthy subjects, remogliflozin etabonate 150 mg oral dose, read-out: T½ Geometric mean (CV%) (converted)
[6] = plasma, po, 500 mg, plasma analyte, healthy subjects, remogliflozin etabonate 500 mg oral dose, read-out: T½ Geometric mean (CV%) (converted)
[7] = plasma, po, 1000 mg, plasma analyte, healthy subjects, remogliflozin etabonate 1000 mg oral dose, read-out: T½ Geometric mean (CV%) (converted)
[8] = plasma analyte, healthy subjects, remogliflozin etabonate 20 mg oral dose
[9] = plasma analyte, healthy subjects, remogliflozin etabonate 20 mg oral dose, read-out: Tmax Median
[10] = plasma analyte, healthy subjects, remogliflozin etabonate 50 mg oral dose
[11] = plasma analyte, healthy subjects, remogliflozin etabonate 50 mg oral dose, read-out: Tmax Median
[12] = plasma analyte, healthy subjects, remogliflozin etabonate 150 mg oral dose
[13] = plasma analyte, healthy subjects, remogliflozin etabonate 150 mg oral dose, read-out: Tmax Median
[14] = plasma analyte, healthy subjects, remogliflozin etabonate 500 mg oral dose
[15] = plasma analyte, healthy subjects, remogliflozin etabonate 500 mg oral dose, read-out: Tmax Median
[16] = plasma analyte, healthy subjects, remogliflozin etabonate 1000 mg oral dose
[17] = plasma analyte, healthy subjects, remogliflozin etabonate 1000 mg oral dose, read-out: Tmax Median
[18] = remogliflozin etabonate 50 mg oral dose
[19] = remogliflozin etabonate 500 mg oral dose (prodrug n = 2)
[20] = remogliflozin etabonate 500 mg oral dose

| Structure (SMILES) | half-life [1, 3] | half-life [1, 4] | half-life [1, 5] | half-life [1, 6] | half-life [1, 7] | AUC(0-inf) [1, 8] | Cmax [1, 8] | Tmax [1, 9] | AUC(0-inf) [1, 10] | Cmax [1, 10] | Tmax [1, 11] | AUC(0-inf) [1, 12] | Cmax [1, 12] | Tmax [1, 13] | AUC(0-inf) [1, 14] | Cmax [1, 14] | Tmax [1, 15] | AUC(0-inf) [1, 16] | Cmax [1, 16] | Tmax [1, 17] | further results |
| --- | --- | --- | --- | --- | --- | --- | --- | --- | --- | --- | --- | --- | --- | --- | --- | --- | --- | --- | --- | --- | --- |
| Cc1[nH]nc(O[C@@H]2O[C@H](CO)[C@@H](O)[C@H](O)[C@H]2O)c1Cc1ccc(OC(C)C)cc1 [GSK279782] | 1.54 h | 2.19 h | 2.28 h | 3.07 h | 3.5 h | 51.8 ng·h/mL | 17.5 ng/mL | 1.26 h | 145 ng·h/mL | 50.2 ng/mL | 1.38 h | 447 ng·h/mL | 155 ng/mL | 1 h | 1520 ng·h/mL | 498 ng/mL | 1.5 h | 4000 ng·h/mL | 1290 ng/mL | 1.25 h | Potency in inhibiting SGLT-2 in vitro (SGLT-2): as potent as remogliflozin; Tmax ([1]; plasma, oral, healthy subjects, 20-1000 mg, read-out: median Tmax estimates, range across doses): 1 to 1.5 h; half-life ([1]; plasma, oral, healthy subjects, 20-1000 mg, read-out: median T½ estimates, range across doses): 1.54 to 3.5 h; AUC(0-inf) [2, 18]: 130 ng·h/mL; Cmax [2, 18]: 34.6 ng/mL; Tmax [2, 18]: 1.74 h; half-life [2, 18]: 2.05 h; AUC(0-inf) [2, 19]: 1290 ng·h/mL; half-life [2, 19]: 3.28 h; Cmax [2, 20]: 314 ng/mL; Tmax [2, 20]: 2.75 h |
| Cc1c(Cc2ccc(OC(C)C)cc2)c(O[C@@H]2O[C@H](CO)[C@@H](O)[C@H](O)[C@H]2O)nn1C(C)C [Remogliflozin, remogliflozin] | 1.38 h | 1.47 h | 1.59 h | 2.57 h | 2.86 h | 133 ng·h/mL | 61 ng/mL | 0.89 h | 324 ng·h/mL | 158 ng/mL | 1.14 h | 991 ng·h/mL | 515 ng/mL | 0.66 h | 3720 ng·h/mL | 1700 ng/mL | 1.5 h | 10300 ng·h/mL | 4820 ng/mL | 1.25 h | Selectivity for SGLT2 over SGLT1 (SGLT2 over SGLT1): high level of selectivity; AUC ratio (remogliflozin/remogliflozin etabonate) Geometric mean ([1]; healthy subjects, 20 mg oral dose, n = 5): 84^d; AUC ratio (remogliflozin/remogliflozin etabonate) Geometric mean ([1]; healthy subjects, 50 mg oral dose): 81; AUC ratio (remogliflozin/remogliflozin etabonate) Geometric mean ([1]; healthy subjects, 150 mg oral dose): 102; AUC ratio (remogliflozin/remogliflozin etabonate) Geometric mean ([1]; healthy subjects, 500 mg oral dose): 105; AUC ratio (remogliflozin/remogliflozin etabonate) Geometric mean ([1]; healthy subjects, 1000 mg oral dose): 95; Time to appearance in plasma at relatively high concentrations ([1]; healthy subjects, after remogliflozin etabonate dosing): ≤ 10 min; half-life ([1]; plasma, oral, both populations, independent of dose (abstract), read-out: mean plasma T½): 2 h; half-life ([1]; plasma, oral, healthy subjects, 20-1000 mg, read-out: mean T½ estimates, range across doses): 1.38 to 2.86 h; Tmax ([1]; plasma, both populations, after oral RE (abstract), read-out: time to maximum plasma concentration (Tmax)): ~1 h; AUC(0–∞) ratio (Remogliflozin/remogliflozin etabonate) Geometric mean (CV%) ([2]; 50 mg oral dose): 59 (62); AUC(0–∞) ratio (Remogliflozin/remogliflozin etabonate) Geometric mean (CV%) ([2]; 500 mg oral dose): 54 (38); AUC(0-inf) [2, 18]: 523 ng·h/mL; Cmax [2, 18]: 195 ng/mL; Tmax [2, 18]: 1.46 h; half-life [2, 18]: 1.59 h; AUC(0-inf) [2, 19]: 5180 ng·h/mL; half-life [2, 19]: 3.93 h; Cmax [2, 20]: 1890 ng/mL; Tmax [2, 20]: 2.5 h |
